Assay results reported in PubChem BioAssay (NCI).
“And” between values parts separate entries of the source, which are not always exact repeats. Identical values can stand only once.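 Tested at 5 concentrations; 48 h exposure; 96-well plates; endpoints linearly interpolated, else capped at highest concentration. Here, GI50 denotes the concentration required for 50% inhibition of growth. TGI: concentration producing complete growth inhibition.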

tested on: IGROV1 ovarian; assay: DTP human tumour cell line panel, 48 h

Compared with `CC(C)CC(N)C(=O)O` (stereo not drawn), `O=C1NC(Nc2cccc(Cl)c2)=N/C1=C\c1ccc(Cl)c(Cl)c1` is lower in TGI: > 100 µM for the first, 18.7 µM for the second.

tested on: HT29 colon; assay: DTP human tumour cell line panel, 48 h

`N#CC1=C(N2CCCC2)NC(=O)CC1=O` and `O=C(c1ccc(Cl)cc1Cl)N(C(=O)N1CCCCC1)c1ccccc1` cannot be ordered by TGI: > 100 µM for the first, > 100 µM for the second.

Compared with `CC(C)(C)C1=CC(=CC=C2C=CN(CCCCCCCCCCCO)C=C2)C=C(C(C)(C)C)C1=O`, `O=C1NC(Nc2cccc(Cl)c2)=N/C1=C\c1ccc(Cl)c(Cl)c1` is lower in TGI: > 25.7 µM for the first, 19.6 µM for the second.

`CSc1ccc(C2C(Cl)C(=O)N2NC(=O)c2c(Cl)c(Cl)c(Cl)c(Cl)c2-c2nc3ccccc3[nH]2)cc1` (stereo not drawn) and `CC(C)CC(N)C(=O)O` (stereo not drawn) cannot be ordered by TGI: > 100 µM for the first, > 100 µM for the second.

tested on: SN12C renal; assay: DTP human tumour cell line panel, 48 h

`N#CC1=C(N2CCCC2)NC(=O)CC1=O` and `O=C(c1ccc(Cl)cc1Cl)N(C(=O)N1CCCCC1)c1ccccc1` cannot be ordered by TGI: > 100 µM for the first, > 100 µM for the second.

First: CC(C)(C)C1=CC(=CC=C2C=CN(CCCCCCCCCCCO)C=C2)C=C(C(C)(C)C)C1=O
Second: CCCCCCCCCCC(O)C1CCC(C2CCC(C(O)CCCCC(O)CCCCCC(O)CC3=CC(C)OC3=O)O2)O1 (stereo not drawn)
The TGI of the first is lower: 2.73 µM for the first, > 25 µM for the second.

Compared with `CSc1ccc(C2C(Cl)C(=O)N2NC(=O)c2c(Cl)c(Cl)c(Cl)c(Cl)c2-c2nc3ccccc3[nH]2)cc1` (stereo not drawn), `O=C1NC(Nc2cccc(Cl)c2)=N/C1=C\c1ccc(Cl)c(Cl)c1` is 6.6-fold lower in TGI: 37 µM for the first, 5.57 µM for the second.

`CC(C)CC(N)C(=O)O` (stereo not drawn) was tested, and the TGI was > 100 µM.

For `CCCCCCCCCCC(O)C1CCC(C2CCC(C(O)CCCCC(O)CCCCCC(O)CC3=CC(C)OC3=O)O2)O1` (stereo not drawn), the GI50 was > 25 µM.

tested on: NCI-H23 lung; assay: DTP human tumour cell line panel, 48 h

`N#CC1=C(N2CCCC2)NC(=O)CC1=O` and `O=C(c1ccc(Cl)cc1Cl)N(C(=O)N1CCCCC1)c1ccccc1` cannot be ordered by TGI: > 100 µM for the first, > 100 µM for the second.

Going from `CC(C)(C)C1=CC(=CC=C2C=CN(CCCCCCCCCCCO)C=C2)C=C(C(C)(C)C)C1=O` to `CCCCCCCCCCC(O)C1CCC(C2CCC(C(O)CCCCC(O)CCCCCC(O)CC3=CC(C)OC3=O)O2)O1` (stereo not drawn), the TGI rises from 10.6 µM to > 25 µM.

Going from `CSc1ccc(C2C(Cl)C(=O)N2NC(=O)c2c(Cl)c(Cl)c(Cl)c(Cl)c2-c2nc3ccccc3[nH]2)cc1` (stereo not drawn) to `O=C1NC(Nc2cccc(Cl)c2)=N/C1=C\c1ccc(Cl)c(Cl)c1`, the TGI falls from 43.1 µM to 14.1 µM (3.1-fold).

With `CC(C)CC(N)C(=O)O` (stereo not drawn) the TGI was > 100 µM.

Molecule `CCCCCCCCCCC(O)C1CCC(C2CCC(C(O)CCCCC(O)CCCCCC(O)CC3=CC(C)OC3=O)O2)O1` (stereo not drawn) has a GI50 of 0.0144 µM.

tested on: HCC-2998 colon; assay: DTP human tumour cell line panel, 48 h

Compared with `N#CC1=C(N2CCCC2)NC(=O)CC1=O`, `O=C1NC(Nc2cccc(Cl)c2)=N/C1=C\c1ccc(Cl)c(Cl)c1` is lower in TGI: > 100 µM for the first, 5.27 µM for the second.

Compared with `CC(C)(C)C1=CC(=CC=C2C=CN(CCCCCCCCCCCO)C=C2)C=C(C(C)(C)C)C1=O`, `CCCCCCCCCCC(O)C1CCC(C2CCC(C(O)CCCCC(O)CCCCCC(O)CC3=CC(C)OC3=O)O2)O1` (stereo not drawn) is higher in TGI: 2.27 µM for the first, > 25 µM for the second.

Molecule `CSc1ccc(C2C(Cl)C(=O)N2NC(=O)c2c(Cl)c(Cl)c(Cl)c(Cl)c2-c2nc3ccccc3[nH]2)cc1` (stereo not drawn) has a TGI of 37 µM.

tested on: KM12 colon; assay: DTP human tumour cell line panel, 48 h

`N#CC1=C(N2CCCC2)NC(=O)CC1=O` and `O=C(c1ccc(Cl)cc1Cl)N(C(=O)N1CCCCC1)c1ccccc1` cannot be ordered by TGI: > 100 µM for the first, > 100 µM for the second.

Compared with `CC(C)(C)C1=CC(=CC=C2C=CN(CCCCCCCCCCCO)C=C2)C=C(C(C)(C)C)C1=O`, `CCCCCCCCCCC(O)C1CCC(C2CCC(C(O)CCCCC(O)CCCCCC(O)CC3=CC(C)OC3=O)O2)O1` (stereo not drawn) is higher in TGI: 4.4 µM for the first, > 25 µM for the second.

First: CSc1ccc(C2C(Cl)C(=O)N2NC(=O)c2c(Cl)c(Cl)c(Cl)c(Cl)c2-c2nc3ccccc3[nH]2)cc1 (stereo not drawn)
Second: O=C1NC(Nc2cccc(Cl)c2)=N/C1=C\c1ccc(Cl)c(Cl)c1
The TGI of the first is 2.4-fold higher: 34.8 µM for the first, 14.8 µM for the second.

`CC(C)CC(N)C(=O)O` (stereo not drawn) was tested, and the TGI was > 100 µM.

With `CCCCCCCCCCC(O)C1CCC(C2CCC(C(O)CCCCC(O)CCCCCC(O)CC3=CC(C)OC3=O)O2)O1` (stereo not drawn) the GI50 was > 25 µM.

tested on: NCI-H460 lung; assay: DTP human tumour cell line panel, 48 h

Going from `N#CC1=C(N2CCCC2)NC(=O)CC1=O` to `O=C1NC(Nc2cccc(Cl)c2)=N/C1=C\c1ccc(Cl)c(Cl)c1`, the TGI falls from > 100 µM to 5.67 µM.

Compared with `CC(C)(C)C1=CC(=CC=C2C=CN(CCCCCCCCCCCO)C=C2)C=C(C(C)(C)C)C1=O`, `CCCCCCCCCCC(O)C1CCC(C2CCC(C(O)CCCCC(O)CCCCCC(O)CC3=CC(C)OC3=O)O2)O1` (stereo not drawn) is higher in TGI: 4.55 µM for the first, > 25 µM for the second.

For `CC(C)CC(N)C(=O)O` (stereo not drawn), the TGI was > 100 µM.

For `CCCCCCCCCCC(O)C1CCC(C2CCC(C(O)CCCCC(O)CCCCCC(O)CC3=CC(C)OC3=O)O2)O1` (stereo not drawn), the GI50 was 10.7 µM.

tested on: COLO 205 colon; assay: DTP human tumour cell line panel, 48 h

`N#CC1=C(N2CCCC2)NC(=O)CC1=O` and `O=C(c1ccc(Cl)cc1Cl)N(C(=O)N1CCCCC1)c1ccccc1` cannot be ordered by TGI: > 100 µM for the first, > 100 µM for the second.

First: CC(C)(C)C1=CC(=CC=C2C=CN(CCCCCCCCCCCO)C=C2)C=C(C(C)(C)C)C1=O
Second: O=C1NC(Nc2cccc(Cl)c2)=N/C1=C\c1ccc(Cl)c(Cl)c1
The TGI of the first is 4.6-fold lower: 2.82 µM for the first, 13.1 µM for the second.

First: CSc1ccc(C2C(Cl)C(=O)N2NC(=O)c2c(Cl)c(Cl)c(Cl)c(Cl)c2-c2nc3ccccc3[nH]2)cc1 (stereo not drawn)
Second: CC(C)CC(N)C(=O)O (stereo not drawn)
The TGI of the first is lower: 40.6 µM for the first, > 100 µM for the second.

`CCCCCCCCCCC(O)C1CCC(C2CCC(C(O)CCCCC(O)CCCCCC(O)CC3=CC(C)OC3=O)O2)O1` (stereo not drawn) gave a GI50 of 3.09 µM.

In the case of `CCCCCCCCCCC(O)C1CCC(C2CCC(C(O)CCCCC(O)CCCCCC(O)CC3=CC(C)OC3=O)O2)O1` (stereo not drawn), the TGI is reported as 9.15 µM and > 25 µM.

tested on: OVCAR-8 ovarian; assay: DTP human tumour cell line panel, 48 h

Going from `N#CC1=C(N2CCCC2)NC(=O)CC1=O` to `CC(C)(C)C1=CC(=CC=C2C=CN(CCCCCCCCCCCO)C=C2)C=C(C(C)(C)C)C1=O`, the TGI falls from > 100 µM to 2.1 µM.
